Results on nine compounds are retold here after ChEMBL document CHEMBL1201862, “PubChem BioAssay data set” (2004).

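These data come from cells grown in 96-well plates and exposed to compound for 48 hours at five concentrations. GI50: concentration for 50% inhibition of growth.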 Calls of active or inactive are those of the source. Cut-off read from the data, not from the text of the source: active = GI50 up to about 1.1 µM and inactive = higher. A value given as a limit tells only on which side of the number the result lay.

Common to all, as to assay: inhibition of tumour cell growth, NCI panel, 48 h
Assay [1] concerns NCI-H23.
Assay [2] deals with NCI-H460.
For assay [3], the system named is NCI-H226.
For assay [4], the system named is M14.
The subject of assay [5] is A498.
Assay [6] concerns KM-20L2.
For assay [7], the system named is HT-29.
In assay [8] the test system is HCT-15.
The test system of assay [9] is HOP-62.
In assay [10] the test system is SF-539.
Assay [11] deals with SK-MEL-28.
The test system of assay [12] is OVCAR-3.
The subject of assay [13] is OVCAR-8.
The subject of assay [14] is SNB-19.
Assay [15] deals with LXFL 529.
Assay [16] concerns HCT-116.
For assay [17], the system named is MCF7.
Assay [18] concerns PC-3.
The subject of assay [19] is MDA-MB-435.
For assay [20], the system named is T47D.

Regarding `CCC1(CC)C(=O)NC(=S)N=C1N`, the GI50 in [1], in assay [2], in assay [3], in assay [4], in assay [5] and in assay [6] was > 100 µM (inactive) each time. Also, the GI50 in assay [7] was > 100 µM (inactive); in [8], greater than 100 µM; in assay [9], > 100 µM (inactive); in assay [10], > 100 µM (inactive); in assay [11] it was > 100 µM (inactive); in [12], > 100 µM (inactive). Besides, the GI50 in assay [13], in [14], in [15] and in [16] was > 100 µM (inactive) each time.
Consider `COc1cc2c(cc1OC)[C@@H]([C@H](O)c1ccccc1)NCC2`, for which the GI50 in assay [1], in assay [2], in [3], in assay [4], in assay [5] and in assay [6] was > 100 µM (inactive) in each case. Besides, the GI50 is > 100 µM (inactive) in [7]; greater than 100 µM in assay [8]; > 100 µM (inactive) in assay [9]; > 100 µM (inactive) in assay [10]; > 100 µM (inactive) in [11]; > 100 µM (inactive) in assay [12]. Also, the GI50 in assay [13], in assay [14], in [15] and in assay [16] was > 100 µM (inactive) throughout.
`NC1=NN(c2ccccc2)C(=O)C1C(=O)CCC(=O)Nc1cccc(Cl)c1` (stereo unspecified): the GI50 in [1], in [2], in [3], in [4], in [5] and in assay [6] was > 100 µM (inactive) throughout. For the same compound, the GI50 in assay [7] was > 100 µM (inactive); in assay [8], greater than 100 µM; in [9], > 100 µM (inactive); in [10], > 100 µM (inactive); in assay [11] it was > 100 µM (inactive); in assay [12], > 100 µM (inactive). The GI50 in assay [13], in [14], in assay [15] and in assay [16] was > 100 µM (inactive) throughout.
Turning to `CC(C)[C@H](COC(C)(C)C)/N=C/N1CSc2ccccc21`, the GI50 in assay [1] was 36.5 µM (inactive); in assay [2] it was 33 µM (inactive); in [3], 48.3 µM (inactive); in assay [4], 36.3 µM (inactive); in assay [5], 46.1 µM (inactive); in assay [6] it was 27.8 µM (inactive). Moreover, the GI50 in [7] was 28.9 µM (inactive); in assay [8] it was 84.9 µM; in assay [9] it was 41.2 µM (inactive); in [10], 23.5 µM (inactive); in assay [11], 72.3 µM (inactive); in [12], 23 µM (inactive). Also, the GI50 in assay [13] was 35.2 µM (inactive); in assay [14], 37.8 µM (inactive); in assay [15], 34.7 µM (inactive); in assay [16] it was 27.6 µM (inactive).
For the compound `O=C(/N=C(\Nc1ccccc1)SCCS/C(=N/C(=O)c1cccs1)Nc1ccccc1)c1cccs1`, the GI50 in [1] is 46.2 µM (inactive); in assay [2], 31.6 µM (inactive); in assay [3], 55.8 µM (inactive); in assay [4] it was 55.8 µM (inactive); in assay [5], 56.9 µM (inactive); in assay [6] it was 41.9 µM (inactive). In addition, the GI50 in [7] is 33.3 µM (inactive); in assay [8] it was 44.6 µM; in assay [9], 80.4 µM (inactive); in assay [10], > 100 µM (inactive); in assay [11], 49.9 µM (inactive); in assay [12] it was 54 µM (inactive). Besides, the GI50 in assay [13] was 73.3 µM (inactive); in [14], > 100 µM (inactive); in assay [15], 46.9 µM (inactive); in [16], 49 µM (inactive).
As to `CCCCCCCCCCCCC(Br)C(C)=O` (stereo unspecified), the GI50 in assay [1], in assay [2], in assay [3], in assay [4], in assay [5] and in assay [6] was > 100 µM (inactive) throughout. Moreover, the GI50 in assay [7] is > 100 µM (inactive); in assay [8], greater than 100 µM; in assay [9] it was > 100 µM (inactive); in [10], > 100 µM (inactive); in [11], > 100 µM (inactive); in [12], > 100 µM (inactive). For the same compound, the GI50 in assay [13], in assay [14], in [15] and in assay [16] was > 100 µM (inactive) each time.
As to `CN(C)CCCCCNc1c2ccccc2nc2cccc([N+](=O)[O-])c12`, the GI50 was 0.000785 µM (active) in [1]; 0.000223 µM (active) in assay [2]; 0.0214 µM (active) in assay [3]; 0.00146 µM (active) in [4]; 0.00258 µM (active) in [5]; 0.00583 µM (active) in assay [17]. Further, the GI50 in assay [18] is 0.000313 µM (active); in [6], 0.0036 µM (active); in [7], 0.0011 µM (active); in assay [9] it was 0.00149 µM (active); in assay [19], 0.0002 µM (active); in assay [10] it was 0.0036 µM (active). The GI50 is 0.00481 µM (active) in assay [11]; 0.00146 µM (active) in assay [12]; 0.00177 µM (active) in [13]; 0.00413 µM (active) in assay [14]; 0.00973 µM (active) in assay [20]; 0.0115 µM (active) in assay [15]. Also, in assay [16], the GI50 is 0.00074 µM (active).
For the compound `O=C1Nc2ccccc2N=CC1NC(=O)C(c1ccccc1)c1ccccc1` (stereo unspecified), the GI50 in [1], in assay [2], in assay [3], in [4], in assay [5] and in assay [6] was > 100 µM (inactive) in each case. Further, the GI50 in assay [7] was > 100 µM (inactive); in assay [8], greater than 100 µM; in assay [9], > 100 µM (inactive); in [10], > 100 µM (inactive); in assay [11], > 100 µM (inactive); in assay [12], > 100 µM (inactive). Also, the GI50 in assay [13], in [14], in [15] and in assay [16] was > 100 µM (inactive) throughout.
Regarding `Cc1ccc(/C=C2\CNC/C(=C\c3ccc(C)cc3)C2=O)cc1`, the GI50 in assay [1] is 1.83 µM (inactive); in assay [2], 1.48 µM (inactive); in assay [3] it was 1.84 µM (inactive); in assay [4], 2.26 µM (inactive); in [5], 1.89 µM (inactive); in assay [17] it was 0.513 µM (active). The GI50 in [18] was 2.62 µM (inactive); in assay [6], 1.32 µM (inactive); in assay [7] it was 0.617 µM (active); in assay [8], 1.49 µM; in assay [9] it was 2.72 µM (inactive); in assay [19], 3.03 µM (inactive). Further, the GI50 in assay [10] was 2.2 µM (inactive); in assay [11], 2.04 µM (inactive); in assay [12], 2.96 µM (inactive); in [13], 2.19 µM (inactive); in [14], 1.65 µM (inactive); in assay [20] it was 2.65 µM (inactive). In addition, the GI50 is 1.28 µM (inactive) in assay [15] and 0.313 µM (active) in [16].
